In the assay the test system is Toledo cells. Put plainly: Cell proliferation assay, Toledo cells (MTS, 72 h). The class given is cell-based. The protocol:
MTS testing kit was purchased from Promega (Madison, Wis., USA). The RPMI-1640, Fetal bovine serum and Penicillin-Streptomycin were purchased from BI (Biological Industries, Beit Haemek, Israel). Dimethyl sulfoxide (DMSO) was purchased from Sigma (St. Louis, Mo., USA). Toledo (ATCC catalog #: CRL-2631) cells were cultured in RPMI-1640 supplemented with Penicillin-Streptomycin and 10% FBS.
To investigate whether a compound is able to inhibit the activity of BCL-2 in cells, a mechanism-based assay using Toledo lines was developed. In this assay, the inhibition of BCL-2 was reflected by the inhibition of cell proliferation of Toledo cells. Cells were plated into 96-well plates at the optimized cell density of 30000 cells/well. Plates were incubated at 37° C., with 5% CO2 for 4h. Compounds were serially diluted and added to the plates with the final concentrations of 10000, 3333.3, 1111.1, 370.4, 123.5, 41.2, 13.7, 4.6 and 1.5 nM. Plates were incubated at 37° C., with 5% CO2 for 72 h. 20 μl MTS was added into each well and the plates were incubated at 37° C., with 5% CO2 for exactly 2 h. The absorbance was measured by a microplate reader at 490 nm. IC50 was calculated using GraphPad Prism 5.0 software.

Setting [1] is: Homo sapiens, Toledo cells, MTS, read-out: Toledo IC50.
[2] abbreviates: Toledo cells, MTS, read-out: Toledo IC50.

Like-named read-outs stand apart in the source and are kept apart here.

Take `CSc1nc2[nH]ccc2cc1Oc1cc(N2CCC3(CC2)CC(N2CCC[C@H]2c2ccccc2C(C)C)C3)ccc1C(=O)NS(=O)(=O)c1cc2c(c([N+](=O)[O-])c1)N[C@@H]([C@H]1CC[C@](C)(O)CC1)CO2` (single isomer, unassigned) [Example D-191, N-(((S)-3-((1r,4S)-4-hydroxy-4-methylcyclohexyl)-5-nitro-3,4-dihydro-2H-benzo[b][1,4]oxazin-7-yl)sulfonyl)-4-(2-((R or S)-2-(2-isopropylphenyl)pyrrolidin-1-yl)-7-azaspiro[3.5]nonan-7-yl)-2-((6-(methylthio)-1H-pyrrolo [2,3-b]pyridin-5-yl)oxy)benzamide]: the IC50 under setting [1] came to 1 nM.
For `CC(C)c1ccccc1[C@@H]1COCCN1C1CC2(CCN(c3ccc(C(=O)NS(=O)(=O)c4ccc(NC[C@H]5CC[C@](C)(O)CC5)c([N+](=O)[O-])n4)c(Oc4cnc5[nH]ccc5c4)c3)CC2)C1` (single isomer, unassigned) [Example C-1, 2-((1H-pyrrolo[2,3-b]pyridin-5-yl)oxy)-N-((5-((((1r,4r)-4-hydroxy-4-methylcyclohexyl)methyl)amino)-6-nitropyridin-2-yl)sulfonyl)-4-(2-((R or S)-3-(2-isopropylphenyl)morpholino)-7-azaspiro[3.5]nonan-7-yl) benzamide], under “Homo sapiens, Toledo, read-out: Toledo IC50 (nM)”, the half-inhibitory concentration (IC50) is 1 nM.
For `CC(C)c1ccccc1[C@@H]1CS(=O)(=O)CCN1C1CC2(CCN(c3ccc(C(=O)NS(=O)(=O)c4cc5c(c([N+](=O)[O-])c4)N[C@@H]([C@H]4CC[C@](C)(O)CC4)CO5)c(Oc4cnc5[nH]cc(F)c5c4)c3)CC2)C1` (single isomer, unassigned) [Example D-79, 2-((3-fluoro-1H-pyrrolo[2,3-b]pyridin-5-yl)oxy)-N-(((S)-3-((1r,4S)-4-hydroxy-4-methylcyclohexyl)-5-nitro-3,4-dihydro-2H-benzo[b] [1,4]oxazin-7-yl)sulfonyl)-4-(2-((R or S)-3-(2-isopropylphenyl)-1,1-dioxidothiomorpholino)-7-azaspiro [3.5]nonan-7-yl)benzamide], the IC50 under setting [1] turned out to be 1 nM.
For `CC(C)c1ccccc1[C@@H]1CCCN1C1CC2(CCN(c3ccc(C(=O)NS(=O)(=O)c4cc5c(c([N+](=O)[O-])c4)N[C@@H]([C@H]4CC[C@](C)(O)CC4)CO5)c(Oc4cc5cc[nH]c5nc4OC[C@@H]4COCCN4C(=O)OC(C)(C)C)c3)CC2)C1` (single isomer, unassigned) [Example D-215, tert-butyl (S)-3-(((5-(2-((((S)-3-((1r,4S)-4-hydroxy-4-methylcyclohexyl)-5-nitro-3,4-dihydro-2H-benzo[b][1,4]oxazin-7-yl)sulfonyl)carbamoyl)-5-(2-((R or S)-2-(2-isopropylphenyl)pyrrolidin-1-yl)-7-azaspiro[3.5]nonan-7-yl)phenoxy)-1H-pyrrolo[2,3-b]pyridin-6-yl)oxy)methyl) morpholine-4-carboxylate], the IC50 under setting [1] came out at 1 nM.
Regarding `CC(C)c1ccccc1[C@H]1CCCN1C1CC2(CCN(c3ccc(C(=O)NS(=O)(=O)c4cc5c(c([N+](=O)[O-])c4)NC([C@H]4COCCO4)CO5)c(Oc4cnc5[nH]cc(F)c5c4)c3)CC2)C1` (single isomer, unassigned) [Example D-50a, N-(((R or S)-3-((S)-1,4-dioxan-2-yl)-5-nitro-3,4-dihydro-2H-benzo[b][1,4]oxazin-7-yl)sulfonyl)-2-((3-fluoro-1H-pyrrolo[2,3-b]pyridin-5-yl)oxy)-4-(2-((R or S)-2-(2-isopropylphenyl)pyrrolidin-1-yl)-7-azaspiro[3.5]nonan-7-yl)benzamide], under setting [1], the IC50 turned out to be 1 nM.
With `CC(C)c1ccccc1[C@H]1CCCN1C1CC2(CCN(c3ccc(C(=O)NS(=O)(=O)c4cc5c(c([N+](=O)[O-])c4)NC([C@@H]4COCCO4)CO5)c(Oc4cnc5[nH]cc(F)c5c4)c3)CC2)C1` (single isomer, unassigned) [Example D-49b, N-(((R or S)-3-((R)-1,4-dioxan-2-yl)-5-nitro-3,4-dihydro-2H-benzo[b][1,4]oxazin-7-yl)sulfonyl)-2-((3-fluoro-1H-pyrrolo[2,3-b]pyridin-5-yl)oxy)-4-(2-((R or S)-2-(2-isopropylphenyl)pyrrolidin-1-yl)-7-azaspiro[3.5]nonan-7-yl)benzamide], under setting [2], the IC50 is 1 nM.
On to `CC(C)c1ccccc1[C@@H]1CCC(=O)N1C1CC2(CCN(c3ccc(C(=O)NS(=O)(=O)c4cc5c(c([N+](=O)[O-])c4)N[C@@H]([C@H]4CC[C@](C)(O)CC4)CO5)c(Oc4cnc5[nH]cc(F)c5c4)c3)CC2)C1` [Example D-257, 2-((3-fluoro-1H-pyrrolo[2,3-b]pyridin-5-yl)oxy)-N-(((S)-3-((1r,4S)-4-hydroxy-4-methylcyclohexyl)-5-nitro-3,4-dihydro-2H-benzo[b] [1,4]oxazin-7-yl)sulfonyl)-4-(2-((S)-2-(2-isopropylphenyl)-5-oxopyrrolidin-1-yl)-7-azaspiro[3.5]nonan-7-yl)benzamide], for which, under setting [1], the IC50 came to 1 nM.
“N-(((S)-3-((1r,4S)-4-hydroxy-4- methylcyclohexyl)-5-nitro-3,4- dihydro-2H-benzo[b][1,4]oxazin-7- yl)sulfonyl)-4-(2-((R or S)- 2-(2-isopropylphenyl)pyrrolidin- 1-yl)-7-azaspiro[3.5]nonan-7- yl)-2-((6-(((R)-tetrahydrofuran-3- yl)oxy)-1H-pyrrolo[2,3-b]pyridin- 5-yl)oxy)benzamide [Example D-73]”: the IC50 under setting [2] was 1 nM.
The same measure, in the same setting: under `CC(C)c1ccccc1[C@H]1CCCN1C1CC2(CCN(c3ccc(C(=O)NS(=O)(=O)c4cc5c(c([N+](=O)[O-])c4)NC([C@H]4COCCO4)CO5)c(Oc4cnc5[nH]cc(F)c5c4)c3)CC2)C1` (single isomer, unassigned) [Example D-50b, N-(((R or S)-3-((S)-1,4-dioxan-2-yl)-5-nitro-3,4-dihydro-2H-benzo[b][1,4]oxazin-7-yl)sulfonyl)-2-((3-fluoro-1H-pyrrolo[2,3-b]pyridin-5-yl)oxy)-4-(2-((R or S)-2-(2-isopropylphenyl)pyrrolidin-1-yl)-7-azaspiro[3.5]nonan-7-yl)benzamide] stands 1 nM.
`CC(C)c1ccccc1[C@@H]1CCCN1C1CC2(CCN(c3ccc(C(=O)NS(=O)(=O)c4cc5c(c([N+](=O)[O-])c4)N[C@@H]([C@H]4CC[C@](C)(O)CC4)CO5)c(Oc4cc5cc[nH]c5nc4O[C@H]4CCNC4)c3)CC2)C1` (single isomer, unassigned) [Example D-225, N-(((S)-3-((1r,4S)-4-hydroxy-4-methylcyclohexyl)-5-nitro-3,4-dihydro-2H-benzo[b][1,4]oxazin-7-yl)sulfonyl)-4-(2-((R or S)-2-(2-isopropylphenyl)pyrrolidin-1-yl)-7-azaspiro[3.5]nonan-7-yl)-2-((6-(((S)-pyrrolidin-3-yl)oxy)-1H-pyrrolo[2,3-b]pyridin-5-yl)oxy)benzamide]: under setting [1], the half-maximal inhibitory concentration (IC50) was 1 nM.
Turning to `CC(=O)N1CCN(C2CC3(CCN(c4ccc(C(=O)NS(=O)(=O)c5cc6c(c([N+](=O)[O-])c5)N[C@@H]([C@H]5CC[C@](C)(O)CC5)CO6)c(Oc5cnc6[nH]cc(F)c6c5)c4)CC3)C2)[C@H](c2ccccc2C(C)C)C1` (single isomer, unassigned) [Example D-140, 4-(2-((R or S)-4-acetyl-2-(2-isopropylphenyl)piperazin-1-yl)-7-azaspiro[3.5]nonan-7-yl)-2-((3-fluoro-1H-pyrrolo [2,3-b]pyridin-5-yl)oxy)-N-(((S)-3-((1r,4S)-4-hydroxy-4-methylcyclohexyl)-5-nitro-3,4-dihydro-2H-benzo[b][1,4]oxazin-7-yl)sulfonyl)benzamide], under setting [1], the IC50 was 1 nM.
For `CC(C)c1ccccc1[C@@H]1CCCN1C1CC2(CCN(c3ccc(C(=O)NS(=O)(=O)c4cc5c(c([N+](=O)[O-])c4)N[C@@H]([C@H]4CC[C@](C)(O)CC4)CO5)c(Oc4cc5cc[nH]c5nc4OC[C@H](C)O)c3)CC2)C1` (single isomer, unassigned) [Example D-70, N-(((S)-3-((1r,4S)-4-hydroxy-4-methylcyclohexyl)-5-nitro-3,4-dihydro-2H-benzo[b][1,4]oxazin-7-yl)sulfonyl)-2-((6-((S)-2-hydroxypropoxy)-1H-pyrrolo[2,3-b]pyridin-5-yl)oxy)-4-(2-((R or S)-2-(2-isopropylphenyl)pyrrolidin-1-yl)-7-azaspiro[3.5]nonan-7-yl)benzamide], the IC50 under setting [1] is 1 nM.
On the same count and under the same terms, then `CC(C)c1ccccc1[C@@H]1CCC[C@@H]1N1CC2(CCN(c3ccc(C(=O)NS(=O)(=O)c4ccc(NC[C@H]5CC[C@](C)(O)CC5)c([N+](=O)[O-])c4)c(Oc4cc5cc[nH]c5nc4Cl)c3)CC2)C1` (single isomer, unassigned) [Example D-232, 2-((6-chloro-1H-pyrrolo[2,3-b]pyridin-5-yl)oxy)-N-((4-((1r,4r)-4-hydroxy-4-methylcyclohexyl)methyl)amino)-3-nitrophenyl) sulfonyl)-4-(2-((1S,2S or 1R,2R)-2-(2-isopropylphenyl) cyclopentyl)-2,7-diazaspiro[3.5] nonan-7-yl)benzamide], with 1 nM.

The term IC50 denotes the concentration at which inhibition is half-maximal.
